HELM strings list units from the 5' end as sugar, base in round brackets, then linkage (d deoxyribose, r ribose, m 2'-O-methyl, p phosphodiester). Strings are as the collection lists them; they lack the last nucleoside at the 3' end of the tested compound. [moe] = 2'-O-(2-methoxyethyl) (MOE); [sp] = phosphorothioate linkage; [m5C] = 5-methylcytosine
What follows are substances tested against SCN2A (assay: mouse, dose not given). Settings: ASO.

First: RNA1{[moe](A)[sp].[moe](T)p.[moe](A)p.[moe](T)p.[moe](T)p.d(T)[sp].d(T)[sp].d(T)[sp].d([m5C])[sp].d(T)[sp].d(A)[sp].d([m5C])[sp].d(A)[sp].d([m5C])[sp].d(T)[sp].[moe](G)p.[moe]([m5C])p.[moe](T)[sp].[moe](G)}$$$$ (last 3' nucleoside missing)
Second: RNA1{[moe](T)[sp].[moe](G)p.[moe]([m5C])p.[moe](A)p.d(T)[sp].d(G)[sp].d(T)[sp].d(A)[sp].d(A)[sp].d([m5C])[sp].d([m5C])[sp].d(T)[sp].d(T)[sp].d(T)[sp].[moe](A)p.[moe](T)p.[moe](A)p.[moe]([m5C])[sp].[moe](A)}$$$$ (last 3' nucleoside missing)
The 3 h FOB score of the first is higher: 1 score 0-7 for the first, 0 score 0-7 for the second.

Going from “RNA1{[moe](G)[sp].[moe](A)p.[moe]([m5C])p.[moe]([m5C])p.d(G)[sp].d(T)[sp].d([m5C])[sp].d(T)[sp].d([m5C])[sp].d(T)[sp].d(T)[sp].d(T)[sp].d([m5C])[sp].d(T)[sp].[moe](T)p.[moe](A)p.[moe](T)p.[moe](T)[sp].[moe](T)}$$$$ (last 3' nucleoside missing)” to “RNA1{[moe](T)[sp].[moe](T)p.[moe](G)p.[moe](G)p.[moe](G)p.d(T)[sp].d([m5C])[sp].d(T)[sp].d([m5C])[sp].d(T)[sp].d(T)[sp].d(A)[sp].d(G)[sp].d([m5C])[sp].d(T)[sp].[moe](T)p.[moe](T)p.[moe]([m5C])[sp].[moe](T)}$$$$ (last 3' nucleoside missing)”, the 3 h FOB score rises from 0 score 0-7 to 2.67 score 0-7.

Substance “RNA1{[moe](T)[sp].[moe]([m5C])p.[moe](A)p.[moe](G)p.[moe]([m5C])p.[moe](A)p.d(T)[sp].d(G)[sp].d(T)[sp].d(T)[sp].d(T)[sp].d(A)[sp].d(T)[sp].d([m5C])[sp].d(T)[sp].d(T)[sp].[moe](A)p.[moe](G)[sp].[moe](T)}$$$$ (last 3' nucleoside missing)” has a 3 h FOB score of 0 score 0-7.
